Source: publication PMC6405842, “Identification of a novel scaffold for a small molecule GPR139 receptor agonist” (Scientific Reports, 2019)
Residue numbers refer to the chain shown, from its start.

Assays:
Format in all cases: cell-based
GPR139 [1] = target: T1, GPR139 (Homo sapiens, UniProt Q6DWJ6); test: Phospho-ERK1/2 HTRF assay in CHO-GPR139 cells; settings: ERK phosphorylation
T1 construct: host or cells: CHO-k1
T1 sequence (Q6DWJ6 1-353): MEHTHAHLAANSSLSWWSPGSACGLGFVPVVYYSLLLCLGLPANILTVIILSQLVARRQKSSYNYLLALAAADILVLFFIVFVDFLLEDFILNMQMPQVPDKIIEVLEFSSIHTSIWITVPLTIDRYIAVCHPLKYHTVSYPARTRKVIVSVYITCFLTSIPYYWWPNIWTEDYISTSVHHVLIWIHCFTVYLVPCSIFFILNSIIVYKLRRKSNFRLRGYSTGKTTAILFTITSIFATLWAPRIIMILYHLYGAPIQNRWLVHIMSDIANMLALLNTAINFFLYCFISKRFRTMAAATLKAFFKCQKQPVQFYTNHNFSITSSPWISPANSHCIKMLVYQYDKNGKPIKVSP
Description: All compounds were tested on a CHO-k1 cell line stably expressing GPR139 (CHO-GPR139)[11] kindly provided by H. Lundbeck A/S, Denmark. GPR139-specific responses were assessed using a CHO-k1 cell line stably expressing the muscarinic acetylcholine receptor M1 (CHO-M1) (The Missouri S&T cDNA Resource Center, # CEM100TN00).
Phospho-ERK measurements were made using the Advanced Phospho-ERK1/2 (Thr202/Tyr204) HTRF kit by Cisbio (Codolet, France). Approximately 24 hours prior to the experiment, CHO-GPR139 cells were plated at 50,000 cells/well onto a 96-well plate and cultured as detailed above. Approximately 6 hours later, the media was aspirated, replaced with 50 μL serum-free media, and the cells were allowed to serum starve overnight. The day of the experiment, serial dilutions of the test compounds and controls were made in serum-free media at 2x final concentration. 50 μL of test compounds were added directly to the appropriate wells for 5 minute stimulation at 37 °C. At this point, the media and compounds were rapidly aspirated, lysis/blocking buffer was added, and cells were lysed on a shaker for 30 minutes at room temperature.
(§1) The Ca^2+ and ERK responses were normalized as indicated and the concentration response curves were fitted by Prism 6 software (GraphPad) using nonlinear regression in a sigmoidal model with variable slope, as has been previously described.

GPR139 [2] = target: T1, GPR139; test: Fluo-4 calcium mobilization assay, agonist mode, concentration-response curves in CHO-GPR139 cells
Description: All compounds were tested on a CHO-k1 cell line stably expressing GPR139 (CHO-GPR139)[11] kindly provided by H. Lundbeck A/S, Denmark. GPR139-specific responses were assessed using a CHO-k1 cell line stably expressing the muscarinic acetylcholine receptor M1 (CHO-M1) (The Missouri S&T cDNA Resource Center, # CEM100TN00). The CHO-GPR139 cells were grown in Dulbecco’s modified Eagle’s medium (DMEM) F12-Kaighn’s (ThermoFisher Scientific # 21127) supplemented with 10% dialyzed fetal bovine serum (United States origin; ThermoFisher Scientific # 26400), 1% GlutaMAX-I (100X) (ThermoFisher Scientific # 35050061), and 100 units/mL penicillin and 100 µg/mL streptomycin (ThermoFisher Scientific # 15140122) and 1 mg/mL geneticin (ThermoFisher Scientific # 11811031). The CHO-M1 cells were grown in Ham’s F12 (ThermoFisher Scientific # 21765) supplemented with 10% fetal bovine serum (South American origin; ThermoFisher Scientific # 10270) + 100 units/mL penicillin and streptomycin and 0.25 mg/mL geneticin.
The Fluo-4 Ca^2+-assay was performed as described previously, with minor modifications. After 1 hour incubation with the Fluo-4 dye, the CHO-GPR139 cells were washed with 100 μL HEPES buffer (Hank’s Balanced Salt Solution (HBBS, ThermoFisher Scientific # 14175053) supplemented with 20 mM HEPES, 1 mM MgCl2, 1 mM CaCl2, pH = 7.4) and the compound library was then added in concentrations between 25–63 μM dissolved in HEPES buffer (supplemented with 2.5 mM probenecid and 1% DMSO) and pre-incubated for 10 min at 37 °C. 33 μL of 3.2 μM 1a were added automatically after baseline measurements. […] This set-up allowed us to identify both antagonists and agonists (Fig. 2).
Each compound, for which a concentration response curve was made, was tested at least three times in duplicate measurements. After the incubation with the Fluo-4 dye and a wash, 100 μL HEPES buffer (supplemented with 2.5 mM probenecid) was added to each well and incubated for 10 minutes at 37 °C before recording. 33 μL of compounds (4× concentrated) were added automatically after baseline measurements.
as §1

GPR139 F109L^3×33 = target: T2, GPR139 F109L^3×33 (Homo sapiens, UniProt Q6DWJ6, F109L); test: Ca2+ mobilization on GPR139 mutant F109L; settings: highest tested concentration (100 μM), n = 3
T2 construct: myc (N); expressed in transfected cells
T2 sequence (Q6DWJ6 1-353 F109L): T1 sequence (Q6DWJ6 1-353) with F109L
Description: Figure 4 Ca^2+ mobilization concentration-response curves of AC4 on GPR139 wild-type (WT) and mutants. Data is shown from a representative experiment (mean ± S.D.) out of three independent experiments performed in duplicate. Data is normalized to the Ca^2+ response of buffer (0%) and 100 μM AC4 (100%) on myc-GPR139(WT). Residue numbering in superscript is according to GPCRdb numbering system.
The mutational studies were performed as previously described.

O=C(O)C1CC=CCC1c1nnc(CSc2ccc(Cl)cc2)o1 (stereo not drawn) [AC4]
EC50 (GPR139 [1]; CHO-GPR139 cells, read-out: pEC50 ± SEM (converted)): 0.178 µM | Emax (GPR139 [1]; expressed relative to FBS positive control): 77.2 ± 6.53% | Emax (GPR139 [2]; CHO-GPR139 cells, normalized to buffer (0%) and 8 μM 1a (100%)): 116 ± 3% | EC50 (GPR139 [2]; CHO-GPR139 cells, read-out: pEC50 ± S.E.M. (converted)): 0.219 µM | Emax (GPR139 [2]; Table S1, normalized to compound 1a): 115 ± 3% | Ca2+ response (GPR139 F109L^3×33): 17 ± 2 % of WT
